Experimental data as given in US20230167088A1, “1-PYRAZINYLPYRAZOLYL-3-OXYALKYL ACIDS AND THEIR DERIVATIVES, AND THEIR USE FOR CONTROL OF UNDESIRED PLANT GROWTH” (BAYER AKTIENGESELLSCHAFT, priority 2020, published 2023).

Columns and labels:
[1] = system: POLCO; assay: Herbicidal post-emergence action 1a (greenhouse pots, visual rating); format: in vivo, Polygonum convolvulus; conditions: visual rating about 3 weeks after treatment
Outline: (§1)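 Visual scoring versus untreated plants (100% = plants dead, 0% = as control) followed roughly 3 weeks in the greenhouse after treatment. Plants grown in sandy loam pots had been sprayed on green parts at the one-leaf stage, 2–3 weeks post-sowing, with aqueous WP/EC preparations containing 0.5% additive, 600 l/ha, at 320 and/or 80 g/ha.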

[2] = system: DIGSA; assay: Herbicidal pre-emergence action 2a (greenhouse pots, visual scoring); format: in vivo, Digitaria sanguinalis; conditions: dosage 320 g/ha, visual scoring after about 3 weeks
Outline: (§2)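 Sow, cover with soil, spray soil surface (WP or EC in water, 0.5% additive, 600 l/ha; 320 and/or 80 g/ha), grow in greenhouse ~3 weeks, score visually in % against untreated controls.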

[3] = system: ECHCG; assay: as above; format: in vivo, Echinochloa crus-galli; conditions: dosage 320 g/ha, visual scoring after about 3 weeks
Outline: as §2

[4] = system: LOLRI; assay: as above; format: in vivo, Lolium rigidum; conditions: dosage 320 g/ha, visual scoring after about 3 weeks vs untreated controls
Outline: as §2

[5] = system: SETVI; assay: as above; format: in vivo, Setaria viridis; conditions: dosage 320 g/ha, visual scoring after about 3 weeks vs untreated controls
Outline: as §2

[6] = system: AMARE; assay: as above; format: in vivo, Amaranthus retroflexus; conditions: dosage 320 g/ha, visual scoring after about 3 weeks vs untreated controls
Outline: as §2

[7] = system: VIOTR; assay: as above; format: in vivo, Viola tricolor; conditions: dosage 320 g/ha, visual scoring after about 3 weeks vs untreated controls
Outline: as §2

[8] = system: POAAN; assay: Herbicidal pre-emergence action 2b (doubly sown, 1280 g/ha); format: in vivo, Poa annua; conditions: doubly sown pots, dosage 1280 g/ha, visual scoring after about 3 weeks
Outline: (§3)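 Visual % scores against untreated plants (0% = like control, 100% = dead) were taken roughly 3 weeks after treatment in the greenhouse. Compounds, as WP or EC with 0.5% additive, were applied in 600 l/ha water onto covering soil over seeds of paired mono-/dicot weeds in sandy loam.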

[9] = system: ECHCG; assay: as above; format: in vivo, Echinochloa crus-galli; conditions: doubly sown pots, dosage 1280 g/ha, visual scoring after about 3 weeks
Outline: as §3

[10] = system: harmful plants; assay: Herbicidal post-emergence action 1a, summary across species; format: in vivo; conditions: Tables A1 to A15 (320 g/ha and/or 80 g/ha)
Method: a) Seeds of monocotyledonous and dicotyledonous weeds and crop plants are placed in sandy loam in plastic or organic plant pots, covered with soil and cultivated in a greenhouse under controlled growth conditions. 2 to 3 weeks after sowing, the test plants are treated at the one-leaf stage. The compounds of the invention, formulated in the form of wettable powders (WP) or as emulsion concentrates (EC), are then sprayed onto the green parts of the plants as aqueous suspension or emulsion with addition of 0.5% additive at a water application rate of 600 1/ha (converted). After the test plants have been kept in the greenhouse under optimum growth conditions for about 3 weeks, the activity of the preparations is rated visually in comparison to untreated controls. For example, 100% activity=the plants have died, 0% activity=like control plants.
Tables A1 to A15 below show the effects of selected compounds of the general formula (I) according to Tables 1 and 2 on various harmful plants and an application rate corresponding to 320 g/ha and/or 80 g/ha, which were obtained by the experimental procedure mentioned above.
For example, compound nos. I-05, I-07, I-08, I-10, I-12, I-16, I-17, I-22, I-36, I-37, I-39 and I-40 in the post-emergence method have very good action (80% to 100% herbicidal activity) against harmful plants such as Alopecurus myosuroides, Amaranthus retroflexus, Avena fatua, Lolium rigidum, Polygonum convolvulus, Setaria viridis, Veronica persica and Viola tricolor at an application rate of 0.32 kg of active substance per hectare.

[11] = system: ECHCG; assay: Herbicidal post-emergence action 1a (greenhouse pots, visual rating); format: in vivo, Echinochloa crus-galli; conditions: Dosage 320 g/ha; rated visually about 3 weeks after treatment; 100% = plants have died, 0% = like control plants
Outline: as §1

[12] = system: MATIN; assay: as above; format: in vivo, Matricaria inodora; conditions: visual rating about 3 weeks after treatment
Outline: as §1

Row | Structure (SMILES) | Post-emergence action against POLCO in % ([1]; dosage 80 g/ha) [%] | Pre-emergence action against DIGSA in % [2] [%] | Pre-emergence action against ECHCG in % [3] [%] | Pre-emergence action against LOLRI in % [4] [%] | Pre-emergence action against SETVI in % [5] [%] | Pre-emergence action against AMARE in % [6] [%] | Pre-emergence action against VIOTR in % [7] [%] | Pre-emergence action at 1280 g/ha against POAAN in % [8] [%] | Pre-emergence action at 1280 g/ha against ECHCG in % [9] [%] | herbicidal efficacy against harmful plants in the case of post-emergence treatment (in words) [10] | Post-emergence action against ECHCG in % [11] [%] | Post-emergence action against MATIN in % ([12]; dosage 320 g/ha) [%] | Post-emergence action against POLCO in % ([1]; dosage 320 g/ha) [%] | Post-emergence action against MATIN in % ([12]; dosage 80 g/ha) [%]
1 | COC(=O)C(C)Oc1nn(-c2cnccn2)c(-c2ccnc(F)c2)c1Cl (racemic) [Example I-05] | 80 | 100 | 90 | 100 | 90 | 100 | 100 | 100 | 100 | good herbicidal efficacy | – | – | – | –
2 | COC(=O)C(C)Oc1nn(-c2cnccn2)c(-c2ccnc(F)c2)c1Br (racemic) [Example I-10] | – | 100 | – | 100 | 100 | 90 | 80 | 100 | – | good herbicidal efficacy | – | – | – | –
3 | COC(=O)C(C)Oc1nn(-c2cnccn2)c(-c2ccc(F)nc2)c1Br (racemic) [Example I-12] | – | 100 | – | 100 | 100 | 100 | 100 | 100 | 100 | good herbicidal efficacy | 80 | 80 | 90 | –
4 | COC(=O)C(C)Oc1nn(-c2cnccn2)c(-c2ccc(F)c(F)c2)c1Br (racemic) [Example I-16] | – | 100 | – | 100 | 100 | 100 | 100 | 100 | 100 | good herbicidal efficacy | 90 | 80 | 90 | –
5 | COC(=O)C(C)Oc1nn(-c2cnccn2)c(-c2ccc(F)c(F)c2)c1C#N (racemic) [Example I-22] | – | 100 | – | 100 | 100 | 90 | 90 | 100 | 100 | good herbicidal efficacy | – | 80 | 80 | –
6 | CCOC(=O)COc1nn(-c2cnccn2)c(-c2ccccc2)c1Br [Example I-01] | 80 | 90 | 80 | 80 | – | 100 | – | 100 | 100 | good herbicidal efficacy | 90 | 90 | 80 | 80
